# Measurements published in ChEMBL document CHEMBL4342427, “A new chemotype with promise against Trypanosoma cruzi” (Bioorg Med Chem Lett, 2020).
# Active and inactive are the calls of the source. No cut-off for these calls is given here.
# Columns and labels:
# Trypanosoma cruzi [1] = assay: Antitrypanosomal activity against Trypanosoma cruzi Tulahuen C4 trypomastigotes infected in rat L6 cells measured after 96 hrs by inverted microscopy analysis; assay type: functional, organism-based; conditions: Tulahuen C4, L6, 96 h
# Plasmodium falciparum = assay: Antiprotozoal activity against Plasmodium falciparum NF54 assessed as reduction in [3H]hypoxanthine incorporation preincubated for 48 hrs followed by [3H]hypoxanthine addition and measured after 24 hrs by liquid scintillation counting method; assay type: functional, organism-based
# [2] = test system: Trypanosoma brucei rhodesiense; assay: Antiprotozoal activity against Trypanosoma brucei rhodesiense STIB900 […] assessed as growth inhibition after 72 hrs by Alamar Blue dye-based fluorometric analysis; assay type: functional, organism-based; conditions: STIB900, 72 h
# Leishmania donovani = assay: Antileishmanial activity against Leishmania donovani MHOM/ET/67/L82 amastigotes assessed as growth inhibition after 72 hrs by plate reader based Alamar blue assay; assay type: functional, organism-based; conditions: MHOM/ET/67/L82, 72 h
# Toxoplasma gondii = assay: Antiparasitic activity against Toxoplasma gondii RH transfected with fluorescent transgene dTom; assay type: functional, organism-based
# HFF = assay: Cytotoxicity against human HFF cells assessed as cell growth inhibition; assay type: cell-based
# U2OS = assay: Cytotoxicity against human U2OS cells assessed as cell growth inhibition; assay type: cell-based
# HEK-293T = assay: Cytotoxicity against human HEK293T cells assessed as cell growth inhibition; assay type: cell-based
# [3] = Cytotoxicity against human HC04 cells assessed as cell growth inhibition; assay type: cell-based
# [4] = n-octanol/aqueous buffer distribution coefficient, log D of compound at pH 7.4 by HPLC analysis; assay type: physicochemical
# [5] = Intrinsic clearance in human liver microsomes assessed per mg protein measured up to 60 mins in presence of NADPH; assay type: ADME, Microsome; conditions: for microsomal CLint: liver microsomes
# [6] = Intrinsic clearance in mouse liver microsomes assessed per mg protein measured up to 60 mins in presence of NADPH; assay type: ADME, Microsome; conditions: 1 h
# [7] = Protein binding in human plasma by HPLC analysis; assay type: ADME, cell-free
# [8] = Ratio of IC50 for antiprotozoal activity against Plasmodium falciparum NF54 assessed as reduction in [3H]hypoxanthine incorporation preincubated for 48 hrs followed by [3H]hypoxanthine addition and measured after 24 hrs by liquid scintillation counting method to IC50 for antitrypanosomal activity against Trypanosoma cruzi Tulahuen C4 trypomastigotes infected in rat L6 cells measured after 96 hrs …; assay type: functional
# [9] = Ratio of IC50 for antiprotozoal activity against Trypanosoma brucei rhodesiense STIB900 […] assessed as growth inhibition after 72 hrs by Alamar Blue dye-based fluorometric analysis to IC50 for antitrypanosomal activity against Trypanosoma cruzi Tulahuen C4 trypomastigotes infected in rat L6 cells measured after 96 hrs by inverted microscopy analysis; assay type: functional
# [10] = Kinetic solubility in 0.01M HCl at pH 2 by nephelometry; conditions: read-out: Kinetic_solubility
# [11] = Kinetic solubility in phosphate buffer at pH 6.5 by nephelometry; conditions: read-out: Kinetic_solubility
# [12] = biological target: Sterol 14-alpha demethylase (Trypanosoma cruzi (strain CL Brener)) (UniProt Q7Z1V1); assay: (§1) Binding affinity to full length Trypanosoma cruzi Tulahuen C4 C-terminal His-tagged CYP51 expressed in Escherichia coli HMS174 (DE3) assessed as induction of shift in Soret band by spectrophotometry
# [13] = biological target: T1, Sterol 14-alpha demethylase (Trypanosoma cruzi (strain CL Brener), UniProt Q7Z1V1); assay: Inhibition of Trypanosoma cruzi Tulahuen C4 CYP51 expressed in Escherichia coli HMS174 using [3H]-sterol as substrate in presence of NADPH by reversed phase HPLC analysis
# Trypanosoma cruzi [14] = assay: Antitrypanosomal activity against Trypanosoma cruzi Tulahuen 20A trypomastigote expressing GFP infected in BALB/c mouse cardiomyocytes assessed as reduction in parasitemia measured after 72 hrs by fluorescence assay; assay type: functional, organism-based
# [15] = biological target: T1, Sterol 14-alpha demethylase; assay: as §1
# T1 sequence (Q7Z1V1 whole entry): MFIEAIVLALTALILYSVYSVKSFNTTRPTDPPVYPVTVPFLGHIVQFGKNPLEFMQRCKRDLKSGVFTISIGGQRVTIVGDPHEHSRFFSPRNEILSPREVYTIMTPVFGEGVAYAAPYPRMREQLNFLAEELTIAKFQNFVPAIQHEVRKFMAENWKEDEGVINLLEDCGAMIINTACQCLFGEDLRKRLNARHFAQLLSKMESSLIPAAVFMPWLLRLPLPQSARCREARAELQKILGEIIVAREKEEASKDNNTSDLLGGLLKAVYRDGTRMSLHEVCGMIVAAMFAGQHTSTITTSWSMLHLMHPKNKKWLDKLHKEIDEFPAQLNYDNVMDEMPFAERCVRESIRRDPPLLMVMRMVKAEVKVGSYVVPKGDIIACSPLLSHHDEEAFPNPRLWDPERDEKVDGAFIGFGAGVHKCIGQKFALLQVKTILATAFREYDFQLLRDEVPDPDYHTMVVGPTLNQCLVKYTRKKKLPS
# Sterol 14-alpha demethylase (Trypanosoma cruzi (strain CL Brener)), sequence (Q7Z1V1 whole entry, looked up): as the sequence (Q7Z1V1 whole entry) above
compound,measurement,setting,value
CN1CCN(c2ccc(S(=O)(=O)NC[C@H]3CC[C@H](C(=O)Nc4cccnc4)CC3)cc2)CC1,IC50,Trypanosoma cruzi [1],120 µM
CCOC(=O)N1CCN(c2ccc(S(=O)(=O)NCc3ccc(C(=O)Nc4cccnc4)cc3)cc2)CC1,IC50,Trypanosoma cruzi [1],46 µM
O=C(Nc1cccnc1)c1ccc(CNS(=O)(=O)c2ccc(N3CCOCC3)cc2)cc1,IC50,Plasmodium falciparum,21 µM
same,IC50,[2],25 µM
same,IC50,Leishmania donovani,180 µM
same,IC50,Toxoplasma gondii,> 100 µM
same,IC50,Trypanosoma cruzi [1],2.1 µM
same,IC50,HFF,2 µM
same,IC50,U2OS,0.16 µM
same,IC50,HEK-293T,0.95 µM
same,IC50,[3],> 50 µM
same,logD,[4],2.6
same,microsomal CLint,[5],69 µL/min/mg
same,CLint,[6],200 µL/min/mg
same,PPB,[7],76.2%
same,Ratio IC50,[8],10
same,Ratio IC50,[9],10
same,solubility kinetic,[10],50 to 100 µg/mL
same,solubility kinetic,[11],12.5 to 25 µg/mL
CN1CCN(c2ccc(S(=O)(=O)NCc3ccc(-c4nc(-c5cccnc5)no4)cc3)cc2)CC1,IC50,Plasmodium falciparum,5.8 µM
same,IC50,[2],3.4 µM
same,IC50,Leishmania donovani,49 µM
same,IC50,Toxoplasma gondii,21 µM
same,IC50,Trypanosoma cruzi [1],1.2 µM
same,IC50,HFF,> 50 µM
same,IC50,U2OS,28 µM
same,IC50,HEK-293T,42 µM
same,IC50,[3],> 50 µM
same,logD,[4],4.1
same,CLint,"[5]; microsomes, 1 h",535 µL/min/mg
same,CLint,[6],677 µL/min/mg
same,solubility kinetic,[11],25 to 50 µg/mL
CN1CCN(c2ccc(S(=O)(=O)NCc3ccc(C(=O)Nc4cnccn4)cc3)cc2)CC1,IC50,Trypanosoma cruzi [1],17 µM
C[C@@H]1CN(c2ccc(S(=O)(=O)NCc3ccc(C(=O)Nc4cccnc4)cc3)cc2)C[C@H](C)N1,IC50,Trypanosoma cruzi [1],130 µM
CN1CCN(c2ccc(S(=O)(=O)NCc3ccc(C(=O)Nc4ccc(C#N)nc4)cc3)cc2)CC1,IC50,Trypanosoma cruzi [1],100 µM
CN1CCN(c2ccc(C(=O)NCc3ccc(C(=O)Nc4cccnc4)cc3)cc2)CC1,IC50,Trypanosoma cruzi [1],120 µM
CN1CCN(c2ccc(S(=O)(=O)NCc3ccc(C(=O)Nc4cncnc4)cc3)cc2)CC1,IC50,Trypanosoma cruzi [1],96 µM
Cc1ncccc1NC(=O)c1ccc(CNS(=O)(=O)c2ccc(N3CCN(C)CC3)cc2)cc1,IC50,Trypanosoma cruzi [1],65 µM
same,Activity,[12],inactive
same,IC50,[13],487 µM
CN1CCN(c2ccc(S(=O)(=O)NCc3ccc(C(=O)Nc4ccncc4)cc3)cc2)CC1,IC50,Trypanosoma cruzi [1],28 µM
O=C(Nc1cccnc1)c1ccc(CNS(=O)(=O)c2ccc(N3CCCCC3)cc2)cc1,IC50,Trypanosoma cruzi [1],110 µM
Cc1ccc(NC(=O)c2ccc(CNS(=O)(=O)c3ccc(N4CCN(C)CC4)cc3)cc2)cn1,IC50,Trypanosoma cruzi [1],88 µM
O=C(Nc1cccnc1)c1ccc(CNS(=O)(=O)c2ccc(N3CCNCC3)cc2)cc1,IC50,Trypanosoma cruzi [1],69 µM
O=C(Nc1cccnc1)c1ccc(CNS(=O)(=O)c2ccc(N3CCC(O)CC3)cc2)cc1,IC50,Trypanosoma cruzi [1],120 µM
Cc1ccc(NC(=O)c2ccc(CNS(=O)(=O)c3ccc(N4CCN(C)CC4)cc3)cc2)c(C)n1,IC50,Trypanosoma cruzi [1],110 µM
CC[C@@H]([C@H](C)O)n1ncn(-c2ccc(N3CCN(c4ccc(OC[C@@H]5CO[C@@](Cn6cncn6)(c6ccc(F)cc6F)C5)cc4)CC3)cc2)c1=O [POSACONAZOLE],IC50,Trypanosoma cruzi [14],0.005 µM
CN1CCN(c2ccc(S(=O)(=O)NCc3ccc(C(=O)Nc4cccnc4)cc3)cc2)CC1,IC50,Plasmodium falciparum,10 µM
same,IC50,[2],32 µM
same,IC50,Leishmania donovani,> 200 µM
same,IC50,Toxoplasma gondii,> 100 µM
same,IC50,Trypanosoma cruzi [1],0.007 µM
same,IC50,HFF,> 50 µM
same,IC50,U2OS,0.15 µM
same,IC50,HEK-293T,0.36 µM
same,IC50,[3],> 50 µM
same,logD,[4],2.8
same,microsomal CLint,[5],45 µL/min/mg
same,CLint,[6],112 µL/min/mg
same,PPB,[7],85.2%
same,Kd,[15],1.32 µM
same,IC50,[13],49 µM
same,solubility kinetic,[11],25 to 50 µg/mL
O=C(Nc1cccnc1)c1ccc(CNS(=O)(=O)c2ccc(N3CCC3)cc2)cc1,IC50,Trypanosoma cruzi [1],8.3 µM
